Key:
Assay in all cases: biochemical
[1] = molecular target: T1, panel of 374 wild-type kinases (Homo sapiens, UniProt Q13555); conditions: read-out: % Enzyme Activity (relative to DMSO controls), CAMK2g
T1 construct: purchased Reaction Biology Corporation

[2] = molecular target: T2, panel of 374 wild-type kinases (Homo sapiens, UniProt P00519); conditions: read-out: % Enzyme Activity (relative to DMSO controls), ABL1
T2 construct: purchased Reaction Biology Corporation

[3] = molecular target: T3, panel of 374 wild-type kinases (Homo sapiens, UniProt Q9Y2U5); conditions: read-out: % Enzyme Activity (relative to DMSO controls), MEKK2
T3 construct: purchased Reaction Biology Corporation
T3 sequence (Q9Y2U5 1-619): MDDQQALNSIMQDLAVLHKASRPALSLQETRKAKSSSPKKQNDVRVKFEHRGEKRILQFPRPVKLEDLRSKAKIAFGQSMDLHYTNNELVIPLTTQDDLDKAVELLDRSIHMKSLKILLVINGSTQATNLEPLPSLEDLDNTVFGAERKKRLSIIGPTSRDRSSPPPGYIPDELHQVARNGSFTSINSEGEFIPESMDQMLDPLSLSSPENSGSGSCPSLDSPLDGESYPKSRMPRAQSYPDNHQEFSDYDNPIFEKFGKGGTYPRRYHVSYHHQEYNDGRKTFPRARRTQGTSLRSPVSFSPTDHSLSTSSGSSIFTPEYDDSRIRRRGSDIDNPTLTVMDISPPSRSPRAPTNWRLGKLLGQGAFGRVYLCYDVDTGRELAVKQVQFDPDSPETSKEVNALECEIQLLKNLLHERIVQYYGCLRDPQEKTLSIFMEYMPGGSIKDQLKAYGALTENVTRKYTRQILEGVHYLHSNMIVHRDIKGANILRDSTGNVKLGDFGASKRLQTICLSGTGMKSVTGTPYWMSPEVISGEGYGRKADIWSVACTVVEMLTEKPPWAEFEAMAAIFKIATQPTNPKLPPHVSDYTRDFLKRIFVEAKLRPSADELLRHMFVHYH

[4] = molecular target: T4, panel of 374 wild-type kinases (Homo sapiens, UniProt P48730); conditions: read-out: % Enzyme Activity (relative to DMSO controls), CK1d
T4 construct: purchased Reaction Biology Corporation

[5] = molecular target: T5, panel of 374 wild-type kinases (Homo sapiens, UniProt Q76MJ5); conditions: read-out: % Enzyme Activity (relative to DMSO controls), ERN2/IRE2
T5 construct: purchased Reaction Biology Corporation

[6] = molecular target: T6, panel of 374 wild-type kinases (Homo sapiens, UniProt P29323); conditions: read-out: % Enzyme Activity (relative to DMSO controls), EPHB2
T6 construct: purchased Reaction Biology Corporation
T6 sequence (P29323 19-1055): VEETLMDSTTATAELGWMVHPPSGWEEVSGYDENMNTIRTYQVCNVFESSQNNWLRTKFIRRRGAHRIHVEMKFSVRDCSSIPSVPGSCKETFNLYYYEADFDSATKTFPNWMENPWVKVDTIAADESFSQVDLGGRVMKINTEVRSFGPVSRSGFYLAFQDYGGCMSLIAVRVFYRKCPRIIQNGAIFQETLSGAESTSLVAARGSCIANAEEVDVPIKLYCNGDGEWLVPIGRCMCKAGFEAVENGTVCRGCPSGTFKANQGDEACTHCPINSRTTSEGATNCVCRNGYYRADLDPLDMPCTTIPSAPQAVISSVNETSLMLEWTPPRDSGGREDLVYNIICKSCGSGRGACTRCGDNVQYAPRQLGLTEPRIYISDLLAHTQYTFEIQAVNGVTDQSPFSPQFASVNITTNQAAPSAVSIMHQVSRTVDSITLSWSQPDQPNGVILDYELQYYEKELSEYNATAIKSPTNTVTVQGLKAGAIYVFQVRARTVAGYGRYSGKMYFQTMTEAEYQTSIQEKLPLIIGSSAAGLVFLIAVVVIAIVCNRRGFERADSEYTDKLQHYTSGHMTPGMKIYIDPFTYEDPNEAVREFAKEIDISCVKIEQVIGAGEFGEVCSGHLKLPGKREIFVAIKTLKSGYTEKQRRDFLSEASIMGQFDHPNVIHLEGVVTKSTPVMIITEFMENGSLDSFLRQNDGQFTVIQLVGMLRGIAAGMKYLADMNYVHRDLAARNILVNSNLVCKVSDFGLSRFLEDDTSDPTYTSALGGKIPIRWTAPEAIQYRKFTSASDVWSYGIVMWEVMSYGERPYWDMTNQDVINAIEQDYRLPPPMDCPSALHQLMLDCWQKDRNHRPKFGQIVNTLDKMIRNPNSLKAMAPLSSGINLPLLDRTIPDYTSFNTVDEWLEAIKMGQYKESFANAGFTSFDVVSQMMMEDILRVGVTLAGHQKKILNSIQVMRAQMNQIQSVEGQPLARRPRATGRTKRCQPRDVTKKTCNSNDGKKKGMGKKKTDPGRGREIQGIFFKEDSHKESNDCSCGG

[7] = molecular target: T7, panel of 374 wild-type kinases (Homo sapiens, UniProt Q9H1R3); conditions: read-out: % Enzyme Activity (relative to DMSO controls), MLCK2/MYLK2
T7 construct: purchased Reaction Biology Corporation

[8] = molecular target: T8, panel of 374 wild-type kinases (Homo sapiens, UniProt Q9NR20); conditions: read-out: % Enzyme Activity (relative to DMSO controls), DYRK4
T8 construct: purchased Reaction Biology Corporation
T8 sequence (Q9NR20 1-520): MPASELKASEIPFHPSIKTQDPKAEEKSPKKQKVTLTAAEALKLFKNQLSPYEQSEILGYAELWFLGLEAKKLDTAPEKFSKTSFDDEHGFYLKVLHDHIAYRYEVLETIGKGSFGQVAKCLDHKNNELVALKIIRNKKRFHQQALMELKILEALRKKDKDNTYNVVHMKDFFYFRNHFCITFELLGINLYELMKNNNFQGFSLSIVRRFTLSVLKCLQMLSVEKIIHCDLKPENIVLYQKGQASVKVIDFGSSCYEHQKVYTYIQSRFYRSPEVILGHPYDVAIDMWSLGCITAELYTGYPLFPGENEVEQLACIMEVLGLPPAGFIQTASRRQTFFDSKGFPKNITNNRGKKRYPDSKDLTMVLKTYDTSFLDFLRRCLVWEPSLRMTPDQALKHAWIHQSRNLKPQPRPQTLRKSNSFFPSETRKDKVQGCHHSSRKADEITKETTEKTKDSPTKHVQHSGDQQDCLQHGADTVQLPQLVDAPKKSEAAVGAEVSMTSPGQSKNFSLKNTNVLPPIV

T1 sequence (Q13555 whole entry): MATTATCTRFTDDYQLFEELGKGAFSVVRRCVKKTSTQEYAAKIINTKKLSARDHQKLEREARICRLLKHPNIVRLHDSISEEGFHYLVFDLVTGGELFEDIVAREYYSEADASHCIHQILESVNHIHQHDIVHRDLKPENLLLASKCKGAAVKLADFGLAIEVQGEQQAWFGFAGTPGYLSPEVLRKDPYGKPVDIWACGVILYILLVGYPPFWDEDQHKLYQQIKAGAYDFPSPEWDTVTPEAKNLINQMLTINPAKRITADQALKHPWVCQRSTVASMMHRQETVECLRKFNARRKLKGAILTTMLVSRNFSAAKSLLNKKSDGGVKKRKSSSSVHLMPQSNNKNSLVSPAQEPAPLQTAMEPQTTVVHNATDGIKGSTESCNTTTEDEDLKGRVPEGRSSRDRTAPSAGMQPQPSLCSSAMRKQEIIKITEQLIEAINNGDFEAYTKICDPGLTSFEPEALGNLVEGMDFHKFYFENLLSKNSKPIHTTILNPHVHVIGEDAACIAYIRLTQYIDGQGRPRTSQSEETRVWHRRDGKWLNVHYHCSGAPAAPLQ
T2 sequence (P00519 whole entry): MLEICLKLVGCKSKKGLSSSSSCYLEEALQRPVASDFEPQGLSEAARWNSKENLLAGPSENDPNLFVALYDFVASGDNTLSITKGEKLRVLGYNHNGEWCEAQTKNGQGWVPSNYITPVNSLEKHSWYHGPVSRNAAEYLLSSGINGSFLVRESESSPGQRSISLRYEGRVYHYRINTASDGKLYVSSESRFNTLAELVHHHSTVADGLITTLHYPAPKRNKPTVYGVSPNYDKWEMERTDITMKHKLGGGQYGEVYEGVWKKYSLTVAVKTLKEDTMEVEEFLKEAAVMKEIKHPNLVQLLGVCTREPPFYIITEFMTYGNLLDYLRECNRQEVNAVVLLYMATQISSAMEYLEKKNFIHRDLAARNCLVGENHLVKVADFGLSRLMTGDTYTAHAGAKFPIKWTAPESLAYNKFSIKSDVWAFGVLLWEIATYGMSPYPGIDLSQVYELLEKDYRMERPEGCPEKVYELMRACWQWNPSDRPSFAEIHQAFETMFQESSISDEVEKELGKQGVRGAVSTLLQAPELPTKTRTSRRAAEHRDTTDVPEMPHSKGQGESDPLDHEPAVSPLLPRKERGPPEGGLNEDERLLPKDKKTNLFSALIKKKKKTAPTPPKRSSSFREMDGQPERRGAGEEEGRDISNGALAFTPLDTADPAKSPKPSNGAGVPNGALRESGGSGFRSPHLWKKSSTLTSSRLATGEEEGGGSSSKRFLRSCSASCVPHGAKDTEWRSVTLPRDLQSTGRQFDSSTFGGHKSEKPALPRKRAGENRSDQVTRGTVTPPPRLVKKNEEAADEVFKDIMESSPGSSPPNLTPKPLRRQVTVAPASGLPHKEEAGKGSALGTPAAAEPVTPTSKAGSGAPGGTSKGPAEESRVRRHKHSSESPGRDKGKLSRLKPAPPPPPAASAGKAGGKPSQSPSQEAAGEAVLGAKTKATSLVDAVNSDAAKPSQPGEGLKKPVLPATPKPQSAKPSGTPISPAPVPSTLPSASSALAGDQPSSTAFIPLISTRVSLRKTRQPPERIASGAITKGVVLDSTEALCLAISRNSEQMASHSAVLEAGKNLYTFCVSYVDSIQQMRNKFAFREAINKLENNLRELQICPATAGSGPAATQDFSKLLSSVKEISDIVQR
T7 sequence (Q9H1R3 whole entry): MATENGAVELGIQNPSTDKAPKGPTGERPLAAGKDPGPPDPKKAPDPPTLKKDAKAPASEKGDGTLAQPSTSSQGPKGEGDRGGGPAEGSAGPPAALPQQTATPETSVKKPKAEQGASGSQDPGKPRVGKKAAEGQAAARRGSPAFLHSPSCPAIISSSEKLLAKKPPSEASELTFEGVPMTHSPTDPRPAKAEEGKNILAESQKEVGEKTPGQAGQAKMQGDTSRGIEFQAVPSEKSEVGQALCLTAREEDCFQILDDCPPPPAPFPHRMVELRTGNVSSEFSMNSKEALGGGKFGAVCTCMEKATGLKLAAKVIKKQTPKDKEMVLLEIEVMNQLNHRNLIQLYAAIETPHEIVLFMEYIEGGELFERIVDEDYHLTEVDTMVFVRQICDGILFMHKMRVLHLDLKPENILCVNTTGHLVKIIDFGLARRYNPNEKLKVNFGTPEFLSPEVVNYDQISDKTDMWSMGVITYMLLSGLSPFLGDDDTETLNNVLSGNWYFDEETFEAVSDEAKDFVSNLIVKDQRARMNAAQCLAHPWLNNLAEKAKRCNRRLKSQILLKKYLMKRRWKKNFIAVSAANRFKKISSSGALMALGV
T5 sequence (Q76MJ5 35-926): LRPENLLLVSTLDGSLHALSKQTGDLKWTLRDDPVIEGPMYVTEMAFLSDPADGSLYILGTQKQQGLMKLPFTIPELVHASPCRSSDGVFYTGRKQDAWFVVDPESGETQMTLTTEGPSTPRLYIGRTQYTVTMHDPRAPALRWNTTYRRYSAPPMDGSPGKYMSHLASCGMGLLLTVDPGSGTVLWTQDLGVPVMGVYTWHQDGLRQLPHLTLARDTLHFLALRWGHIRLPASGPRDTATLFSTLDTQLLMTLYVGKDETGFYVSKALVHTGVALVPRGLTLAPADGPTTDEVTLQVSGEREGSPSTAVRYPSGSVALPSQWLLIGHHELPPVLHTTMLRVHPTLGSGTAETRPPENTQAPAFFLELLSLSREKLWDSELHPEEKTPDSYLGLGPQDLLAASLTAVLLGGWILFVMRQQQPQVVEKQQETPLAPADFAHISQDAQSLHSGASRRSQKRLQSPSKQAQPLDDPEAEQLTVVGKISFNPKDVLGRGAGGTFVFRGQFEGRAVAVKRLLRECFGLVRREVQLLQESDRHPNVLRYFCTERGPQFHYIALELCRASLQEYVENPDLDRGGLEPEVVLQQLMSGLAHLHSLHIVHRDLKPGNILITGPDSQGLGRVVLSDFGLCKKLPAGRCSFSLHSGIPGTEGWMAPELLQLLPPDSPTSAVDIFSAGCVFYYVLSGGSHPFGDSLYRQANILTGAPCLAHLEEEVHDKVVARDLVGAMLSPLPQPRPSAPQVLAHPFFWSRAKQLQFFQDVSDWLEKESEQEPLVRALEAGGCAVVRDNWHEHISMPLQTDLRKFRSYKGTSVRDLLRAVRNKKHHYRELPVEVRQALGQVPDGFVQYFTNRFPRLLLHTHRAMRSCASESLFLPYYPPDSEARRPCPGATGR
T4 sequence (P48730 whole entry): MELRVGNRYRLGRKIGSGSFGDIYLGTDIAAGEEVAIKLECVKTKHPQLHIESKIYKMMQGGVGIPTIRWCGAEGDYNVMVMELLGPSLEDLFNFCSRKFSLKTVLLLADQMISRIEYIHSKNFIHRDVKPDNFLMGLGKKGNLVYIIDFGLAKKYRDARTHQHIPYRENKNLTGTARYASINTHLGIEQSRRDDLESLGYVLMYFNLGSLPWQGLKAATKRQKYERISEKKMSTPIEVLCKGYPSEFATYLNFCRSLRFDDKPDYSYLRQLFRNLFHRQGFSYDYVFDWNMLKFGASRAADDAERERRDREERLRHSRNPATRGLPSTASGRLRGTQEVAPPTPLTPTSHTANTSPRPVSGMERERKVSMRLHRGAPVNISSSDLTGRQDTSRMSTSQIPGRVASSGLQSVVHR

O=C(Nc1cnn(-c2csc(C(=O)NC3COC3)c2)c1)Nc1ccccc1Cl [Compound 17, 4-(4-(3-(2-chlorophenyl)ureido)-1H-pyrazol-1-yl)-N-(oxetan-3-yl)thiophene-2-carboxamide]
remaining activity at 5 µM [1]: 96.4%
remaining activity at 5 µM [2]: 83.4%
remaining activity at 5 µM [3]: 110%
remaining activity at 5 µM [4]: 101%
remaining activity at 5 µM [5]: 100%
remaining activity at 5 µM [6]: 101%
remaining activity at 5 µM [7]: 89.9%
remaining activity at 5 µM [8]: 94.6%

Cc1sc(C(=O)NC2COC2)cc1-n1cc(NC(=O)Nc2c(F)cccc2Cl)cn1 [Compound 27, 4-(4-(3-(2-chloro-6-fluorophenyl)ureido)-1H-pyrazol-1-yl)-5-methyl-N-(oxetan-3-yl)thiophene-2-carboxamide]
remaining activity at 10 µM ([1]; 10 uM): 102%
remaining activity at 10 µM ([2]; 10 uM): 102%
remaining activity at 10 µM ([3]; 10 uM): 88.1%
remaining activity at 10 µM ([4]; 10 uM): 112%
remaining activity at 10 µM ([5]; 10 uM): 80.7%
remaining activity at 10 µM ([6]; 10 uM): 109%
remaining activity at 10 µM ([7]; 10 uM): 78.7%
remaining activity at 10 µM ([8]; 10 uM): 93.7%

O=C(Nc1cnn(-c2csc(C(=O)NC3COC3)c2)c1)Nc1c(F)cccc1Cl [Compound 25, 4-(4-(3-(2-chloro-6-fluorophenyl)ureido)-1H-pyrazol-1-yl)-N-(oxetan-3-yl)thiophene-2-carboxamide]
remaining activity at 5 µM [1]: 90.1%
remaining activity at 5 µM [2]: 101%
remaining activity at 5 µM [3]: 80.1%
remaining activity at 5 µM [4]: 117%
remaining activity at 5 µM [5]: 100%
remaining activity at 5 µM [6]: 99.9%
remaining activity at 5 µM [7]: 83.5%
remaining activity at 5 µM [8]: 96.2%
